Series [1] relates to ulcer formation. The note with it: in vivo; cited from earlier work.
The target in series [2] is H-2 receptors (Rattus norvegicus, UniProt P25102). Briefly: Rat uterus assay: reversal of histamine inhibition of electrically induced contractions. The note with it: isolated rat uterine smooth muscle; dose ratios of 2 or more indicate activity. As to the method:
Histamine reduces contractions induced by electrical stimulation of the isolated rat uterine smooth muscle, and histamine H-2 antagonists reverse this inhibition. The dose ratio for a specific concentration of test compound is determined by an assay procedure that compares the inhibitory effect of two concentrations of histamine in the presence of the test compound to the inhibitory effect of two concentrations of histamine in the absence of the test compound. The dose ratio is defined as the ratio of the concentration of histamine in the presence of the test compound to the concentration of histamine in the absence of the test compound where both concentrations produce the same inhibition of the electrical response. Dose ratios of 2 or more indicate activity. Compounds that are active at 40 ug/ml will be tested against isoproterenol at the same concentration in a similar test. Compound concentrations that are active against histamine but not against isoproterenol will be classified as specific H-2 antagonists.
The same type of receptors H-2 are involved in inhibition of contractions of the rat uterus and stimulation of gastric acid secretion. The rat uterus is therefore used as a model upon which to test for histamine H-2 antagonists that may be effective in treating peptic ulcers.

The test system of series [3] is gastric acid secretion. The note with it: in vivo; cited from earlier work.
The subject of series [4] is H2 receptor. Briefly: Lipolysis assay: histamine-stimulated lipolysis in isolated fat cells. The format is cell-based. The note with it: isolated dog fat cells, histamine 2×10^-6 M; active = 50 percent or more inhibition. As to the method: Isolated fat cells of dogs are prepared from adipose tissue. Cells are incubated in the presence or absence of histamine at 2×10^-6 M. Additional flasks contain the compound to be tested, plus histamine. At the end of the incubation the cell cultures are analyzed for glycerol content, and results are converted into a lipolysis rate. The stimulation of lipolysis attributed to histamine (D) is the difference between the rate observed in its presence and absence:
These figures are then converted to a percent inhibition by the formula:
Percent inhibition=(D-E)/D×100

The conditions of series [5]: humans; cited from earlier work.

These results are taken from patent US4386211A, “Anti-ulcer urea compounds” (G. D. Searle & Co., priority 1981, dated 1983).

Sequence of H-2 receptors (P25102 whole entry): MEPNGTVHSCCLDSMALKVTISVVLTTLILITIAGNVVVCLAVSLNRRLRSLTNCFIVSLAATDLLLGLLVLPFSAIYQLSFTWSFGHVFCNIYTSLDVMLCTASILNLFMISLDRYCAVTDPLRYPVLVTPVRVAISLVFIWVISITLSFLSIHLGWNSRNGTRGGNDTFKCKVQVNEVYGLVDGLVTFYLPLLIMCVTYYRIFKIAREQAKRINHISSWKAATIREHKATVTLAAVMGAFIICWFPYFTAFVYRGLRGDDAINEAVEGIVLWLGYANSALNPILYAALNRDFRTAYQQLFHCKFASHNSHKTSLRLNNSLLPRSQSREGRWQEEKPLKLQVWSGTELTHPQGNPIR

For `CNC(=S)NCCCCc1cnc[nH]1` [burimamide], in series [1], the ulcer formation entry is on record as “inhibit”. Also, the “activity in rat uterus assay” value in series [2] is recorded as “active”. Further, the gastric acid secretion result in series [3] is listed as “inhibit”.

Regarding `C/N=C(\S)NCCSCc1[nH]cnc1C` [metiamide], the “classification in lipolysis assay (active against histamine but not norepinephrine = specific)” value in series [4] is reported as “specific inhibitors”. The ulcer formation entry in series [1] is recorded as “inhibit”. In addition, the “activity in rat uterus assay” value in series [2] is given as “active”. Also, the gastric acid secretion entry in series [3] is reported as “inhibit”.

Regarding `CN/C(=N/CCSCc1nc[nH]c1C)NC#N` [cimetidine], the “classification in lipolysis assay (active against histamine but not norepinephrine = specific)” value in series [4] was “specific inhibitors”. In addition, in series [1], the ulcer formation entry is on record as “inhibit”. In series [5], the severe toxic symptoms result is on record as “no severe toxic symptoms”; the untoward effects observed result is “gynecomastia, elevated SGOT, SGPT and creatine, and increases in serum gastrin”. For the same compound, the “activity in rat uterus assay” value in series [2] is on record as “active”. For the same compound, the gastric acid secretion entry in series [3] is “inhibit”.
